Source: patent US8143262B2, “7-(3′,4′-Dialkoxyphenyl)[1,2,4]-triazolo[1,5-A]pyrimidine compounds, process for preparing thereof, and pharmaceutical composition for treating or preventing asthma, chronic obstructive pulmonary disease, arthritis, atopic dermatitis, tumor and degenerative brain diseases comprising the same” (Korea Research Institute of Chemical Technology, priority 2007, dated 2012)

Molecular target: T1, Human PDE-4d (Homo sapiens, UniProt Q08499)
T1 construct: The catalytic domain of PDE4d was cloned to pGEX4T3 (APBiotech) as GST fusion expression vector; GST (N); made in house; host or cells: E. coli BL21, DE3
T1 sequence (Q08499 386-715 limits assumed): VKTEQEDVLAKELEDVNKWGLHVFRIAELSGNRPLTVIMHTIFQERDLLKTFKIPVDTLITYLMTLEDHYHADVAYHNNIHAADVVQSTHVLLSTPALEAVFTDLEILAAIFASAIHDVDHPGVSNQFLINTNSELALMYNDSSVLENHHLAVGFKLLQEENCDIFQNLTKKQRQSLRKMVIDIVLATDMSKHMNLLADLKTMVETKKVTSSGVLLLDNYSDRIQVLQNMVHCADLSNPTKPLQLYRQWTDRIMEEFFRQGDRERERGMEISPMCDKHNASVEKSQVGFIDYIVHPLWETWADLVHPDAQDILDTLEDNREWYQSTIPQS
Experiment: Inhibition of PDE-4 activity ([3H]cAMP hydrolysis, recombinant catalytic domain)
Type: biochemical
Conditions: for IC50: PDE4d 1 nM, cAMP 250 nM, 34° C., 45 minutes, read-out: IC50 against PDE-4 enzyme; for activity on inhibiting PDE-4 (in words): comment on Table 2
Experimental: Experiment of inhibiting PDE-4 activity was carried out by modifying the method of Loughney (Loughney et al., Journal of Biological Chemistry, 1996, 271(2), 796-806). Human PDE-4d prepared by means of gene recombination technology was used as PDE-4d
The catalytic domain of PDE4d was cloned to pGEX4T3 (APBiotech) as GST fusion expression vector, and then PDE4d gene was transformed to E. coli BL21, DE3. The strain was cultured at 37° C. in LB medium, and when OD reached about 0.3˜0.5, the temperature was lowered to 18° C. to induce expression of PDE4d by using 0.5 mM IPTG. After 15 hours from induction of the expression, cells with PDE4d expressed were recovered. The cells were suspended in a buffer solution (50 mM Tris, pH 8.0, 0.4M NaCl, 5 mM DTT), and crushed, centrifuged and purified. The columns used for the purification were Q-cephalose (APBiotech), Glutanione-cephalose (APBiotech) and Superdex200 gel permeation chromatography (APBiotech), in this order.
In order to measure the ability of individual compound to inhibit PDE4d activity, PDE4d 1 nM and cAMP (Sigma) 250 nM as substrate were added to the reaction buffer (50 mM Tris-HCl (pH 7.5) and 4 mM MgCl2), and individual compound obtained from Example 1 was added in a concentration from 1 to 50 μM thereto, and the mixture was reacted at 34° C. for 45 minutes. Total reaction solution was 60 μl. As to cAMP, a mixture with the ratio of [^3H]cAMP (Amersham, 1 μCi/μl) to cAMP (hot:cold, that is, isotope:non-isotope) being 1:200 was used. Then, the reaction was quenched by heating at 95° C. for 2 minutes. After cooling the mixture for 3 minutes, 1 mg/ml of Snake Venome (Sigma V0376) (30 μl) was added thereto. After reacting at 34° C. for 30 minutes, 30 μl of the reaction mixture was added to 250 μl of DOWEX 1×2-100 ion exchange resin (Aldrich, previously mixed with distilled water in a ratio of 1:1.6) by portions, and the mixture was vigorously stirred for 2 minutes. After settling the resin down, the supernatant (130 μl) was added to 2 ml of scintillation cocktail (Packard), and the mixture was thoroughly mixed, and then measured by using beta-counter. With respect to the enzyme activity of control group (experiment carried out without adding compound of Chemical Formula (1)), the concentration of each test compound to inhibit 50% of enzyme activity was determined as IC50.

| Structure (SMILES) | IC50 [nM] | activity on inhibiting PDE-4 (in words) |
| --- | --- | --- |
| O=C(O)c1ccc(-c2nc3nccc(-c4ccc(OC(F)F)c(OCC5CC5)c4)n3n2)cn1 [Compound 137, 5-[7-{3-(cyclopropylmethoxy)-4-(difluoromethoxy)phenyl}-[1,2,4]triazolo[1,5-a]pyrimidin-2-yl]pyridine-2-carboxylic acid] | 200 |  |
| Cc1ccc(-c2nc3nccc(-c4ccc(OC(F)F)c(OCC5CC5)c4)n3n2)cc1 [Compound 113, 7-[3-(Cyclopropylmethoxy)-4-(difluoromethoxy)phenyl]-2-p-tolyl-[1,2,4]triazolo[1,5-a]pyrimidine] | 50 |  |
| Cc1cc(C)cc(-c2nc3nccc(-c4ccc(OC(F)F)c(OCC5CC5)c4)n3n2)c1 [Compound 133, 7-[3-(Cyclopropylmethoxy)-4-(difluoromethoxy)phenyl]-2-(3,5-dimethylphenyl)-[1,2,4]triazolo[1,5-a]pyrimidine] | 42 |  |
| FC(F)Oc1ccc(-c2ccnc3nc(-c4ccc(C(F)(F)F)cc4)nn23)cc1OCC1CC1 [Compound 125, 7-[3-(Cyclopropylmethoxy)-4-(difluoromethoxy)phenyl]-2-(4-trifluoromethylphenyl)-[1,2,4]triazolo[1,5-a]pyrimidine] | 190 |  |
| [O-][n+]1cccc(-c2nc3nccc(-c4ccc(OC(F)F)c(OCC5CC5)c4)n3n2)c1Cl [Compound 109, 3-[7-{3-(Cyclopropylmethoxy)-4-(difluoromethoxy)phenyl}-[1,2,4]triazolo[1,5-a]pyrimidine-2-yl]-2-Chloropyridine-N-oxide] | 160 |  |
| COc1cc(-c2nc3nccc(-c4ccc(OC(F)F)c(OCC5CC5)c4)n3n2)ccc1C [Compound 134, 7-[3-(Cyclopropylmethoxy)-4-(difluoromethoxy)phenyl]-2-(3-methoxy-4-methylphenyl)-[1,2,4]triazolo[1,5-a]pyrimidine] | 40 |  |
| N#Cc1ncccc1-c1nc2nccc(-c3ccc(OC(F)F)c(OCC4CC4)c3)n2n1 [Compound 124, 2-(6-cyano-pyridin-5-yl)-7-[3-(cyclopropylmethoxy)-4-(difluoromethoxy)phenyl]-[1,2,4]triazolo[1,5-a]pyrimidine] | 190 |  |
| NC(=O)c1ccc(-c2nc3nccc(-c4ccc(OC(F)F)c(OCC5CC5)c4)n3n2)cn1 [Compound 139, 5-[7-{3-(cyclopropylmethoxy)-4-(difluoromethoxy)phenyl}-[1,2,4]triazolo[1,5-a]pyrimidin-2-yl]pyridine-2-carboxamide] | 46 |  |
| O=[N+]([O-])c1cccc(-c2nc3nccc(-c4ccc(OC(F)F)c(OCC5CC5)c4)n3n2)c1 [Compound 116, 7-[3-(Cyclopropylmethoxy)-4-(difluoromethoxy)phenyl]-2-(3-nitrophenyl)-[1,2,4]triazolo[1,5-a]pyrimidine] | 20 |  |
| [O-][n+]1cc(-c2nc3nccc(-c4ccc(OC(F)F)c(OCC5CC5)c4)n3n2)ccc1Cl [Compound 108, 3-[7-{3-(Cyclopropylmethoxy)-4-(difluoromethoxy)phenyl}-[1,2,4]triazolo[1,5-a]pyrimidine-2-yl]-6-Chloropyridine-N-oxide] | 240 |  |
| Cc1ccc(-c2nc3nccc(-c4ccc(OC(F)F)c(OCC5CC5)c4)n3n2)c(C)c1 [Compound 136, 7-[3-(Cyclopropylmethoxy)-4-(difluoromethoxy)phenyl]-2-(2,4-dimethylphenyl)-[1,2,4]triazolo[1,5-a]pyrimidine] | 60 |  |
| N#Cc1ccc(-c2nc3nccc(-c4ccc(OC(F)F)c(OCC5CC5)c4)n3n2)cc1 [Compound 117, 2-(4-Cyanophenyl)-7-[3-(cyclopropylmethoxy)-4-(difluoromethoxy)phenyl]-[1,2,4]triazolo[1,5-a]pyrimidine] | 50 |  |
| O=C(O)c1cccc(-c2nc3nccc(-c4ccc(OC(F)F)c(OCC5CC5)c4)n3n2)c1 [Compound 131, 3-[7-{3-(Cyclopropylmethoxy)-4-(difluoromethoxy)phenyl}-[1,2,4]triazolo[1,5-a]pyrimidin-2-yl]benzoic acid] | 20 | excellent activity on inhibiting PDE-4 |
| COc1ccc(-c2ccnc3nc(-c4cccc(C#N)c4)nn23)cc1OC1CCCC1 [Compound 129, 7-[3-(Cyclopentoxy)-4-methoxyphenyl]-2-(3-cyanophenyl)-[1,2,4]triazolo[1,5-a]pyrimidine] | 13 |  |

Results, then the compound that gave them:

| IC50 [nM] | activity on inhibiting PDE-4 (in words) | Structure (SMILES) |
| --- | --- | --- |
| 40 |  | FC(F)Oc1ccc(-c2ccnc3nc(-c4cccc(Cl)c4)nn23)cc1OCC1CC1 [Compound 120, 2-(3-Chlorophenyl)-7-[3-(cyclopropylmethoxy)-4-(difluoromethoxy)phenyl]-[1,2,4]triazolo[1,5-a]pyrimidine] |
| 18 |  | FC(F)Oc1ccc(-c2ccnc3nc(-c4cccnc4)nn23)cc1OCC1CC1 [Compound 101, 7-[3-(cyclopropylmethoxy)-4-(difluoromethoxy)phenyl]-2-pyridin-3-yl-[1,2,4]triazolo[1,5-a]pyrimidine] |
| 47 |  | N#Cc1cccc(-c2nc3nccc(-c4ccc(OC(F)F)c(OC(F)F)c4)n3n2)c1 [Compound 122, 7-(3,4-Bis-difluoromethoxyphenyl)-2-(3-cyanophenyl)-[1,2,4]triazolo[1,5-a]pyrimidine] |
| 250 |  | [O-][n+]1cccc(-c2nc3nccc(-c4ccc(OC(F)F)c(OC(F)F)c4)n3n2)c1 [Compound 130, 3-[7-(3,4-Bis-difluoromethoxyphenyl)-[1,2,4]triazolo[1,5-a]pyrimidine-2-yl]-pyridine-N-oxide] |
| 42 |  | FC(F)Oc1ccc(-c2ccnc3nc(-c4cccnc4)nn23)cc1OCC1CC1 [Compound 111, 3-[7-{3-(cyclopropylmethoxy)-4-(difluoromethoxy)phenyl}-[1,2,4]triazolo[1,5-a]pyrimidin-2-yl]-pyridinium bisulfate] |
| 23 |  | Fc1cccc(-c2nc3nccc(-c4ccc(OC(F)F)c(OCC5CC5)c4)n3n2)c1 [Compound 106, 7-[3-(Cyclopropylmethoxy)-4-(difluoromethoxy)phenyl]-2-(3-fluorophenyl)-[1,2,4]triazolo[1,5-a]pyrimidine] |
| 5 | most excellent activity | FC(F)Oc1ccc(-c2ccnc3nc(-c4cccc(I)c4)nn23)cc1OCC1CC1 [Compound 126, 7-[3-(Cyclopropylmethoxy)-4-(difluoromethoxy)phenyl]-2-(3-iodophenyl)-[1,2,4]triazolo[1,5-a]pyrimidine] |
| 30 |  | FC(F)Oc1ccc(-c2ccnc3nc(-c4cccc(C(F)(F)F)c4)nn23)cc1OCC1CC1 [Compound 128, 7-[3-(Cyclopropylmethoxy)-4-(difluoromethoxy)phenyl]-2-(3-trifluoromethylphenyl)-[1,2,4]triazolo[1,5-a]pyrimidine] |
| 10 | excellent activity on inhibiting PDE-4 | N#Cc1cccc(-c2nc3nccc(-c4ccc(OC(F)F)c(OCC5CC5)c4)n3n2)c1 [Compound 115, 2-(3-Cyanophenyl)-7-[3-(cyclopropylmethoxy)-4-(difluoromethoxy)phenyl]-[1,2,4]triazolo[1,5-a]pyrimidine] |
| 14 | excellent activity on inhibiting PDE-4 | FC(F)Oc1ccc(-c2ccnc3nc(-c4cccc(Br)c4)nn23)cc1OCC1CC1 [Compound 121, 2-(3-Bromophenyl)-7-[3-(cyclopropylmethoxy)-4-(difluoromethoxy)phenyl]-[1,2,4]triazolo[1,5-a]pyrimidine] |
| 6 | excellent activity on inhibiting PDE-4 | COc1cccc(-c2nc3nccc(-c4ccc(OC(F)F)c(OCC5CC5)c4)n3n2)c1 [Compound 107, 7-[3-(Cyclopropylmethoxy)-4-(difluoromethoxy)phenyl]-2-(3-methoxyphenyl)-[1,2,4]triazolo[1,5-a]pyrimidine] |
| 170 |  | FC(F)Oc1ccc(-c2ccnc3nc(-c4cccnc4)nn23)cc1OC(F)F [Compound 114, 7-(3,4-Bis-difluoromethoxyphenyl)-2-pyridin-3-yl[1,2,4]triazolo[1,5-a]pyrimidine] |
| 6 | excellent activity on inhibiting PDE-4 | Nc1cccc(-c2nc3nccc(-c4ccc(OC(F)F)c(OCC5CC5)c4)n3n2)c1 [Compound 119, 2-(3-Aminophenyl)-7-[3-(cyclopropylmethoxy)-4-(difluoromethoxy)phenyl]-[1,2,4]triazolo[1,5-a]pyrimidine] |
